Laboratory results published in article PMC6891749, “[b]-Annulated Halogen-Substituted Indoles as Potential DYRK1A Inhibitors” (Molecules, 2019).
Values after ≈ are worked out from the molar mass of the structure shown. Structures can show the parent of a compound that is named as a salt. Where two headings read alike, the source gives them in different places.

Assays:
[1] = Thermodynamic solubility, shake-flask method with HPLC; type: physicochemical; conditions: aqueous phosphate buffer, thermodynamic from solid, phosphate buffer pH 7.4, shake-flask, 25 °C, mean value and range, read-out: Sexp., therm., pH 7.4 (thermodynamic solubility)
Method: For determination of thermodynamic solubility an aqueous phosphate buffer at pH 7.4 with sodium chloride was used. The buffer was prepared by dissolving Na2HPO4 × 2 H2O (298 mg), KH2PO4 (19 mg) and NaCl (800 mg) in water (100 mL). The pH was adjusted to 7.4 by addition of aq. hydrochloric acid (3 mol/L). The thermodynamic solubility was determined using a shake-flask method with quantification by a buffer-HPLC method. […] The mixtures were shaken at 25 °C and 400 rpm for 24 and 48 h (IKA KS 3000 ic control, IKA-Werke, Staufen, Germany). For each time (24 and 48 h) two independent measurements at two different detection wavelengths (254 and 280 nm) were determined. After 24 h and 48 h the mixtures were inspected for remaining solids. The concentrations in the resulting saturated solutions were quantified by isocratic HPLC with external standard calibration. […] For calibration, a stock solution of the test compounds in DMSO was prepared and diluted with DMSO to suitable concentrations. The AUC at the wavelength 254 nm and 280 nm was used for quantification.

[2] = Kinetic solubility, laser nephelometry; type: physicochemical; conditions: for solubility kinetic: aqueous phosphate buffer, aqueous buffer, kinetic from dmso stock, phosphate buffer pH 7.4, nephelometry, mean value and range, read-out: Sexp., kin., pH 7.4 (kinetic solubility)
Method: The kinetic solubility was determined using laser nephelometry. A stock solution based on the results of the thermodynamic solubility measurement of the test compounds in DMSO was prepared. The stock solution was diluted with DMSO to get different concentrations. The DMSO dilutions (5 µL) were placed on a 96-well plate filled with aqueous phosphate buffer pH 7.4 (195 µL, same buffer as for thermodynamic solubility). Two dilution series of the stock solution were measured. A blank was determined for every measurement. The well plate was scanned by a nephelometer (Nephelostar Plus, BMG Labtech, Ortenberg, Germany). Precipitated particles scatter the laser light which is detected by the nephelometer. The intensity of the scattered light is assumed to be proportional to the particle concentration in the suspension. The different concentrations were plotted versus the intensities measured by the nephelometer. The resulting kick-off curves led directly to the kinetic solubility by determining the intersection of the linear straight line paralleling the x axis and the linear slope.

RnDYRK1A-kd = RnDYRK1A-kd (Rattus norvegicus, UniProt Q63470); assay: ADP-Glo luminescent kinase assay; type: biochemical, Rn; conditions: for DYRK1A inhibitory activity (in words): ADP-Glo assay
Method: (§1) Protein kinase assays with the derivatives 11–15 were carried out by radiometric methods using protein kinases, reagents, and conditions as described before. The DYRK1A inhibitory activities of the Mannich bases 16, 27 and 28 were assayed in 384-well plates using the ADP-GloTM assay kit (Promega, Madison, WI) according to the recommendations of the manufacturer. This assay is a luminescent ADP detection assay that provides a homogeneous and high-throughput screening method to measure kinase activity by quantifying the amount of ADP produced during a kinase reaction. Briefly, the reactions were carried out in a final volume of 6 µL for 30 min at 30 °C in appropriate kinase buffer, with either protein or peptide as substrate in the presence of 10 µM ATP. After that, 6 µL of ADP-GloTM Kinase Reagent was added to stop the kinase reaction. After an incubation time of 50 min at room temperature (rt), 12 µL of Kinase Detection Reagent was added for one hour at rt. The transmitted signal was measured using the Envision (PerkinElmer, Waltham, MA) microplate luminometer and expressed in Relative Light Units (RLU). In order to determine the half maximal inhibitory concentration (IC50), the assays were performed in duplicate in the absence or presence of increasing doses of the tested compounds. Kinase activities are expressed in % of maximal activity, i.e. measured in the absence of inhibitor. The peptide substrate was obtained from Proteogenix (Schiltigheim, France). RnDYRK1A-kd was assayed in buffer A with 0.033 μg/µl of the peptide […] as substrate (buffer A: 10 mM MgCl2, 1 mM EGTA, 1 mM DTT, 25 mM Tris-HCl pH 7.5, 50 µg/mL heparin). All data points for construction of dose response curves were recorded in triplicate. Typically, the standard deviation of single data points was below 10%.

MAO-A = system: MAO-A; parameters: method as in PMID 15010457, PMID 20981014; conditions: cited from earlier work
DYRK1A [3] = target: T1, DYRK1A (Homo sapiens, UniProt Q13627); parameters: method as in PMID 25264830, PMID 27766861; conditions: cited from earlier work
DYRK1B = system: DYRK1B; parameters: method as in PMID 25264830, PMID 27766861; conditions: cited from earlier work
CDK1 [4] = system: CDK1; parameters: method as in Falke et al. [34]; conditions: radiometric; ref Falke et al. [34]; cited from earlier work
CDK1 [5] = assay: Protein kinase assay, radiometric; type: biochemical; conditions: dose response curves, triplicates
Method: (§2) The new compounds 11–16 were tested on an array of protein kinases of the CMGC family. First, the kinases were incubated with 10 µM solutions of the test compounds and the residual activities compared to controls were measured. The IC50 values of promising compounds were then determined from concentration-response curves (Table 1).
as §1

CDK5 = CDK5 (Homo sapiens, UniProt Q00535); assay: Protein kinase assay, radiometric; type: biochemical; conditions: dose response curves, triplicates
CDK5, sequence (Q00535 whole entry, species assumed): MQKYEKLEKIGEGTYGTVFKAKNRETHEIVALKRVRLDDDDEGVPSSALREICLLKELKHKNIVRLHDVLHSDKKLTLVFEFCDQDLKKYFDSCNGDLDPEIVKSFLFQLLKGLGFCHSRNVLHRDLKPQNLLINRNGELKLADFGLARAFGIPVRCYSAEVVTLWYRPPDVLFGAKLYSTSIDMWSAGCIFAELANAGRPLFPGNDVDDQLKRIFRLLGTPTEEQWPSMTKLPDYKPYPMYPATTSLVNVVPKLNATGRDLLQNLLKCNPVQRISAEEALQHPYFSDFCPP
CDK5, sequence (Q15078 99-307 partner limits assumed, species assumed): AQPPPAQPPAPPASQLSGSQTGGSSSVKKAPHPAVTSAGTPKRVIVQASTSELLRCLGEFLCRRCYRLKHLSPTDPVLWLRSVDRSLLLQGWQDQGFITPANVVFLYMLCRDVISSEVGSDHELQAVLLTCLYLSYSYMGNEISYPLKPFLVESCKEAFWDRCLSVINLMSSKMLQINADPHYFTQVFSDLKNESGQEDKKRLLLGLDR
Method: as §2, §1

CK1 = assay: Protein kinase assay, radiometric; type: biochemical; conditions: dose response curves, triplicates
Method: as §2, §1

DYRK1A [6] = target: T1, DYRK1A; assay: Protein kinase assay, radiometric; type: biochemical; conditions: dose response curves, triplicates
Method: as §2, §1

GSK-3 = assay: Protein kinase assay, radiometric; type: biochemical; conditions: dose response curves, triplicates
Method: as §2, §1

CDK2 = CDK2 (Homo sapiens, UniProt P24941); assay: Protein kinase assay, radiometric; type: biochemical; conditions: dose response curves, triplicates
Method: as §2, §1

CLK1 = CLK1 (Mus musculus, UniProt P22518); assay: Protein kinase assay, radiometric; type: biochemical; conditions: dose response curves, triplicates
CLK1, sequence (P22518 whole entry): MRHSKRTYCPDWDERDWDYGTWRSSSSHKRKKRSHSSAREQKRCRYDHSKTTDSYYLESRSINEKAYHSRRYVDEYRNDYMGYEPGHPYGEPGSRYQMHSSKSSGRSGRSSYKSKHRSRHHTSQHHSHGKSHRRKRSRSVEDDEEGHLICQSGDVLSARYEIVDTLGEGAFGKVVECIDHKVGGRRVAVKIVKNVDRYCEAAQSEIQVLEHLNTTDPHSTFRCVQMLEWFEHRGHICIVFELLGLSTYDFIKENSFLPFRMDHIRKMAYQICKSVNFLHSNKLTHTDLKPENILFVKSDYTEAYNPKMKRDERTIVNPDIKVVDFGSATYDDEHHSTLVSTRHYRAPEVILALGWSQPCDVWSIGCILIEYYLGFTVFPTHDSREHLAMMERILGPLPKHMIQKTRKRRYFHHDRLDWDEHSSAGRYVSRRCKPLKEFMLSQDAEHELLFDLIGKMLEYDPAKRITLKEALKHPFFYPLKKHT
Method: as §2, §1

CDK9 = CDK9 (Homo sapiens, UniProt P50750); assay: Protein kinase assay, radiometric; type: biochemical; conditions: dose response curves, triplicates
CDK9, sequence (P50750 whole entry, species assumed): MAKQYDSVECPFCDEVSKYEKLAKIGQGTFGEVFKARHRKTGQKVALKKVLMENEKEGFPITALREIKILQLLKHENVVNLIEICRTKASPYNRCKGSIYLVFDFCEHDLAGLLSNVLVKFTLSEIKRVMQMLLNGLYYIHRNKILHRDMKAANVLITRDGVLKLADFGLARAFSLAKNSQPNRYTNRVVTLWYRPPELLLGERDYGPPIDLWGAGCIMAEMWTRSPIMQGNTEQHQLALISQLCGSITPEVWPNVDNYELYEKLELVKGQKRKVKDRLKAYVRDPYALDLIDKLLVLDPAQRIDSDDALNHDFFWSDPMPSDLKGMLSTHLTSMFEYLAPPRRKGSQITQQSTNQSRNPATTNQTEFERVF
CDK9, sequence (O60563 whole entry partner, species assumed): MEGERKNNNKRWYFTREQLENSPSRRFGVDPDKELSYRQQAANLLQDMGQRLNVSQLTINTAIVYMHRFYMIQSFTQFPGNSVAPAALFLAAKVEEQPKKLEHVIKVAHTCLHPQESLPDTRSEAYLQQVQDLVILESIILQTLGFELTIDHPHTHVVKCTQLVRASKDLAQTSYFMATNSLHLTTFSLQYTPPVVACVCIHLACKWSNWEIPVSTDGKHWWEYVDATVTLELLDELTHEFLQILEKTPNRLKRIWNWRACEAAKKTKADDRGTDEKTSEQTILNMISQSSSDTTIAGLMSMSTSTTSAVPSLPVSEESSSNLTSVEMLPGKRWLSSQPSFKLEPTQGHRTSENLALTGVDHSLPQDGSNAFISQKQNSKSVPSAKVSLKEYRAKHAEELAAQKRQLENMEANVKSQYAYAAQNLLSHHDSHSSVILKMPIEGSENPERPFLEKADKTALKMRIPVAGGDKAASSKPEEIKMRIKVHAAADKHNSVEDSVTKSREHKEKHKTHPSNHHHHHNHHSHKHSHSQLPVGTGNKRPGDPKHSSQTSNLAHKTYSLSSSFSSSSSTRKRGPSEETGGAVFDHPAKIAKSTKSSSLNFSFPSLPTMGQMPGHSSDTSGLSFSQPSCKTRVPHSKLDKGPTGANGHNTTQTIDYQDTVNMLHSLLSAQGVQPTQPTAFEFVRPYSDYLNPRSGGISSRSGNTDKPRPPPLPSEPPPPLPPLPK
Method: as §2, §1

Row | Structure (SMILES) | IC50 (CDK1 [5]) [µM] | IC50 (CDK5) [µM] | IC50 (CK1) [µM] | IC50 (DYRK1A [6]) [µM] | IC50 (GSK-3) [µM] | IC50 (CDK2) [µM] | IC50 (CLK1) [µM] | IC50 (CDK9) [µM] | also measured
1 | O=C1c2c([nH]c3c(Cl)cccc23)CCC1CN1CCCCC1 (racemic) [compound 16, (R,S)-8-Chloro-3-(piperidin-1-ylmethyl)-1,2,3,9-tetrahydro-4H-carbazol-4-one hydrochloride] |  |  |  |  |  |  |  |  | solubility thermodynamic [1]: 13600 µM; solubility kinetic [2]: 2310 µM; DYRK1A inhibitory activity (in words) (RnDYRK1A-kd): complete loss of DYRK1A inhibitory activity; IC50 (RnDYRK1A-kd; ADP-Glo assay kit, 10 µM ATP, read-out: IC50 DYRK1A): > 10 µM
2 | O=C1c2c([nH]c3c(Cl)cccc23)CCC1CN1CCOCC1 (racemic) [compound 27, (R,S)-8-Chloro-3-(morpholinomethyl)-1,2,3,9-tetrahydro-4H-carbazol-4-one hydrochloride] |  |  |  |  |  |  |  |  | DYRK1A inhibitory activity (in words) (RnDYRK1A-kd): inactive
3 | CN(C)CC1CCc2[nH]c3c(Cl)cccc3c2C1=O (racemic) [compound 28, (R,S)-8-Chloro-3-[(dimethylamino)methyl]-1,2,3,9-tetrahydro-4H-carbazol-4-one hydrochloride] |  |  |  |  |  |  |  |  | DYRK1A inhibitory activity (in words) (RnDYRK1A-kd): inactive
4 | CCN1/C(=C/C(C)=O)Sc2ccc(O)cc21 [compound 4] |  |  |  |  |  |  |  |  | MAO-A inhibition (MAO-A): no MAO-A inhibition
5 | COC(=N)c1nc2ccc3ncnc(Nc4ccc(Cl)cc4Cl)c3c2s1 [compound 7] |  |  |  |  |  |  |  |  | Activity on DYRK1A (DYRK1A [3]): subnanomolar; Activity on DYRK1B (DYRK1B): subnanomolar
6 | O=C(O)c1nc2ccccc2c2[nH]c3c(I)cccc3c12 [compound 10, reference compound] |  |  |  |  |  |  |  |  | solubility thermodynamic [1]: < 5 µM; IC50 (CDK1 [4]): > 10 µM; solubility kinetic [2]: 5.28 µM (≈ 2.05 µg/mL)
7 | O=c1ccccc2[nH]c3c(Cl)cccc3c12 [compound 11, 4-Chlorocyclohepta[b]indol-10(5H)-one] | > 10 | > 10 | > 10 | 0.2 | > 10 | > 10 | 0.17 | > 10 | solubility thermodynamic [1]: < 5 µM; solubility kinetic [2]: 26.1 µM (≈ 5.99 µg/mL); Improvement of kinetic solubility compared to 10 ([2]; phosphate buffer pH 7.4): fivefold improved solubility
8 | O=C1CCc2[nH]c3c(Cl)cccc3c21 [compound 12, 5-Chloro-3,4-dihydrocyclopenta[b]indol-1(2H)-one] | > 10 | > 10 | > 10 | 0.71 | > 10 | > 10 | 0.89 | > 10 | 
9 | O=C1CCCc2[nH]c3c(Cl)cccc3c21 [compound 13, 8-Chloro-1,2,3,9-tetrahydro-4H-carbazol-4-one] |  | 8.2 | > 10 | 1.6 | 4.4 |  | 0.3 |  | 
10 | O=C1NCCc2[nH]c3c(Cl)cccc3c21 [compound 14, 6-Chloro-2,3,4,5-tetrahydro-1H-pyrido[4,3-b]indol-1-one] | 1.2 | 0.81 | 3.6 | 0.19 | 2.7 | 1.7 | 0.12 | 0.88 | 
11 | O=C1NCCCc2[nH]c3c(Cl)cccc3c21 [compound 15, 7-Chloro-3,4,5,6-tetrahydroazepino[4,3-b]indol-1(2H)-one] | 7 | 2.5 | 4.2 | 2.2 | > 10 | 2.5 | 0.32 | 2.2 | 
